# Source: patent US20240083904A1, “ANTAGONISTS OF THE ADENOSINE A2A RECEPTOR” (AdoRx Therapeutics Limited, priority 2020, published 2024)
# Columns and labels:
# [1] = biological target: human Adenosine A2a receptor (Homo sapiens (Human), UniProt P29274); experiment: Adenosine receptor TR-FRET binding assay (A2a); conditions: CHO cell membranes, 100 nM CA200645, Ki from IC50 by Cheng and Prusoff
# Method: (§1) All FRET binding experiments were conducted at room temperature in white 384-well plates, in assay binding buffer containing 1× LabMed (Cisbio, France), 100 μg/mL saponin, 1% DMSO and 0.02% pluronic acid. Binding of the fluorescently labelled Adenosine receptor antagonist XAC (CA200645, FRET acceptor) to terbium-labelled A1, A2a, A2b and A3 adenosine receptors (FRET donors) was detected by time-resolved FRET due to the close proximity of the donor and acceptor in a binding event. To investigate the ability of unlabelled test compounds to bind to Adenosine A1, A2a, A2b and A3 receptors, dose response curves were constructed that determined the ability of a range of concentrations to inhibit the binding of 30 nM CA200645 to the A2b receptor and 100 nM CA200645 to the A1, A2a, and A3 receptor.
# (§2) Serial dilution (1:3 dilutions) of test compounds in neat DMSO and transfer of a 400 nL sample of test compound into the assay plate was carried out using the Mosquito (TTP Labtech, UK). The compound samples were incubated for 2 hours at room temperature with a fixed concentration of CA200645 defined for each receptor (see above) and CHO cell membranes containing the human Adenosine A1 (0.5 μg/well), A2a (0.3 μg/well), A2b (1 μg/well) or A3 (1 μg/well) receptor in 40 μL of assay buffer. Total and non-specific binding of CA200645 was determined in the absence and presence of 10 μM XAC, respectively. Following 2 hours incubation, the level of CA200645 binding was detected on a Pherastar FSX (BMG Labtech, Germany) using standard TR-FRET settings. The terbium donor was excited with three laser flashes at a wavelength of 337 nm, and donor and acceptor emission was detected at 620 nm and 665 nm wavelengths, respectively. FRET ratios were obtained by multiplying the acceptor/donor ratio value by 10,000. Specific binding was determined by subtracting the non-specific binding FRET ratio from the total binding FRET ratio. Compound IC50 curves were analysed using GraphPad Prism 7.0 (GraphPad, USA) and Ki affinity values were determined from the obtained IC50 values using the method of Cheng and Prusoff.
# [2] = biological target: human Adenosine A1 receptor (Homo sapiens (Human), UniProt P30542); experiment: Adenosine receptor TR-FRET binding assay (A1); conditions: CHO cell membranes, 100 nM CA200645, Ki from IC50 by Cheng and Prusoff
# Chain of human Adenosine A1 receptor (P30542 whole entry): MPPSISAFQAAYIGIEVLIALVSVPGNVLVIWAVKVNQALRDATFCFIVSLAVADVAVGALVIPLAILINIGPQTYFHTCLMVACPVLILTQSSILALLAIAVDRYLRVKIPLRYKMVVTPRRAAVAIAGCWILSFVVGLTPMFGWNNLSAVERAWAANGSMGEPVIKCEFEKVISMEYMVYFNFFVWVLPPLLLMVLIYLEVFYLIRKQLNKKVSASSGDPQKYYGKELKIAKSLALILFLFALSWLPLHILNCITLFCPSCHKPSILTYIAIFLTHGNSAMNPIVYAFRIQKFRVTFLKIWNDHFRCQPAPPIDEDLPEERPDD
# Method: as §1, §2
# [3] = biological target: human Adenosine A2b receptor (Homo sapiens (Human), UniProt P29275); experiment: Adenosine receptor TR-FRET binding assay (A2b); conditions: CHO cell membranes, 30 nM CA200645, Ki from IC50 by Cheng and Prusoff
# Chain of human Adenosine A2b receptor (P29275 whole entry): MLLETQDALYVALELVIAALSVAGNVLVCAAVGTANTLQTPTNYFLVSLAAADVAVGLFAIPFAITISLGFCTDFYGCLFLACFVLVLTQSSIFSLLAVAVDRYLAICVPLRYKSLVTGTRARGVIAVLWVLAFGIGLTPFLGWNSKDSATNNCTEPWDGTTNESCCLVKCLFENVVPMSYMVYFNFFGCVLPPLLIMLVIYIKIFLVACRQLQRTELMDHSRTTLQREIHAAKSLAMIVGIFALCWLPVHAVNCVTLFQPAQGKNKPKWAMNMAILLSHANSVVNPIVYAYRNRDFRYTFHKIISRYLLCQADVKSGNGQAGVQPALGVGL
# Method: as §1, §2
# [4] = biological target: human Adenosine A3 receptor (Homo sapiens (Human), UniProt P0DMS8); experiment: Adenosine receptor TR-FRET binding assay (A3); conditions: CHO cell membranes, 100 nM CA200645, Ki from IC50 by Cheng and Prusoff
# Chain of human Adenosine A3 receptor (P0DMS8 whole entry): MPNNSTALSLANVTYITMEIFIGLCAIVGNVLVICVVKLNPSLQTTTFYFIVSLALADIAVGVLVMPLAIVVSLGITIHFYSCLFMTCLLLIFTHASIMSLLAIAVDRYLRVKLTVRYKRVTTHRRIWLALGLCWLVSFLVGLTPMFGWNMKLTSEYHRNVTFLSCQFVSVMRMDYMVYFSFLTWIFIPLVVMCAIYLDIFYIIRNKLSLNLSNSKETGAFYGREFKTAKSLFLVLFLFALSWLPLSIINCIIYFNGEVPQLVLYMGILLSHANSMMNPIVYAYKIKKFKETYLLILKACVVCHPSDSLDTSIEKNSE
# Method: as §1, §2
# human PBMCs = experiment: CD3/CD28 stimulated IL-2 release NECA reversal assay in human PBMCs; assay type: cell-based; conditions: PBMC, 1 uM NECA, 24 hours
# Method: Blood is drawn from healthy volunteers using sodium citrate as the anticoagulant (0.3% final concentration). After centrifugation of the blood over Histopaque-1077, PBMCs are collected from the Histopaque/plasma interface and washed twice in PBS (300 g for 10 mins at room temp). Cells are plated at 50,000 cells/well in 150 μl RPMI/10% FCS in 96-well cell culture plates that have been precoated with 1 ug/ml CD3 antibody. 50 μl diluted compound mix is added to the cells, to obtain final concentrations of 1 μg/ml CD28 antibody, 1 uM NECA and 0.003-10 μM adenosine receptor antagonist. Assay plates are incubated for 24 hours at 37° C. in a humidified incubator. Culture supernatant is tested for IL-2 levels using the human IL-2 Tissue Culture Kit (Meso Scale Discovery). Data for dose-response curves is calculated as % inhibition with 100% inhibition defined from no agonist control wells (+CD3/28-NECA)
# [5] = system: pCREB in CD8+ T cells in human whole blood; experiment: Measurement of pCREB in CD8+ T cells in human whole blood; assay type: cell-based; conditions: T-cell, 3 μM NECA, rolipram, FACS
# Method: Heparinised human whole blood was pre-incubated at 37° C. with serial dilutions of A2a antagonists for 20 min. and the phosphodiesterase inhibitor rolipram to amplify the pCREB response. The adenosine receptor agonist NECA is then added at a final concentration of 3 μM and following a 60 min incubation the blood is fixed and red blood cells lysed. White blood cells are isolated, permeabilized and stained with directly conjugated fluorescent antibodies to phospho-CREB (Alexa Fluor 488) and CD8 (Alexa Fluor 647) and the level of phospho-CREB in CD8+ T cells is measured by FACS using a BD Accuri C6 Flow Cytometer.
# Chain of human Adenosine A2a receptor (P29274 whole entry): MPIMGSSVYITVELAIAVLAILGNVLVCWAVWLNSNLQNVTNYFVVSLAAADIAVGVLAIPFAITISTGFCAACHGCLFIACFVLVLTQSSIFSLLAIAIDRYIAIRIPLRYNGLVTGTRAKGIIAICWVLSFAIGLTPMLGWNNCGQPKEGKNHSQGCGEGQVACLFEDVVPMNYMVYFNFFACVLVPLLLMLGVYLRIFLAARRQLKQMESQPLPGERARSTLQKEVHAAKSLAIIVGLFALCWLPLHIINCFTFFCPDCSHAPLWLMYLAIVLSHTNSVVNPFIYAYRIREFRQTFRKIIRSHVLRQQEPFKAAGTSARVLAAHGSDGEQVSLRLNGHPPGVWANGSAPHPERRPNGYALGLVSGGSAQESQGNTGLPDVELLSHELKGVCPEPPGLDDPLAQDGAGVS
Ki [1],Ki [2],Ki [3],Ki [4],IC50 [5],Structure (SMILES),IC50 (human PBMCs)
3.9 nM,1830 nM,1580 nM,> 1000 nM,–,"CC(=O)c1cc(-c2c(-c3cccc(C#N)c3)nc3ccc(C(=O)NCC(C)(C)O)nn23)cc(C)n1 [Example 2, 3-(2-Acetyl-6-methyl-4-pyridyl)-2-(3-cyanophenyl)-N-(2-hydroxy-2-methyl-propyl)imidazo[1,2-b]pyridazine-6-carboxamide]",–
0.32 nM,78 nM,34 nM,> 1000 nM,105 nM,"Cc1cc(-c2c(-c3cccc(C#N)c3)nc3ccc(C(=O)N[C@@H](C)C(C)(C)O)nn23)cc(C(F)F)n1 [Example 2.5, 2-(3-Cyanophenyl)-3-[2-(difluoromethyl)-6-methyl-4-pyridyl]-N-[(1S)-2-hydroxy-1,2-dimethyl-propyl]imidazo[1,2-b]pyridazine-6-carboxamide]",1.1 nM
0.34 nM,324 nM,79 nM,> 1000 nM,499 nM,"Cc1cc(-c2c(-c3cccc(C#N)c3)nc3ccc(C(=O)N[C@H](C)C(C)(C)O)nn23)cc(C(F)(F)F)n1 [Example 2.7, 2-(3-Cyanophenyl)-N-[(1R)-2-hydroxy-1,2-dimethyl-propyl]-3-[2-methyl-6-(trifluoromethyl)-4-pyridyl]imidazo[1,2-b]pyridazine-6-carboxamide]",10.5 nM
0.19 nM,243 nM,285 nM,> 1000 nM,472 nM,"COc1cc(-c2c(-c3cccc(C#N)c3)nc3ccc(C(=O)N[C@@H](C)C(C)(C)O)nn23)cc(C)n1 [Example 2.8, 2-(3-Cyanophenyl)-N-[(1S)-2-hydroxy-1,2-dimethyl-propyl]-3-(2-methoxy-6-methyl-4-pyridyl)imidazo[1,2-b]pyridazine-6-carboxamide]",4.6 nM
0.2 nM,96 nM,20 nM,> 1000 nM,168 nM,"Cc1cc(-c2c(-c3cccc(C#N)c3)nc3ccc(C(=O)N[C@@H](C)C(C)(C)O)nn23)cc(Cl)n1 [Example 2.9, 3-(2-Chloro-6-methyl-4-pyridyl)-2-(3-cyanophenyl)-N-[(1S)-2-hydroxy-1,2-dimethyl-propyl]imidazo[1,2-b]pyridazine-6-carboxamide]",5.3 nM
0.68 nM,120 nM,49 nM,> 1000 nM,–,"Cc1cc(-c2c(-c3cccc(C#N)c3)nc3ccc(C(=O)N[C@@H](C)C(C)(C)O)nn23)cc(CO)n1 [Example 6, 2-(3-Cyanophenyl)-N-[(1S)-2-hydroxy-1,2-dimethyl-propyl]-3-[2-(hydroxymethyl)-6-methyl-4-pyridyl]imidazo[1,2-b]pyridazine-6-carboxamide]",–

# More lines, now with the values behind:
Structure (SMILES),Ki [1],Ki [2],Ki [3],Ki [4],IC50 [5],IC50 (human PBMCs)
"CC(C)(O)CNC(=O)c1ccc2nc(-c3cccc(C#N)c3)c(Br)n2n1 [Example 1, 3-Bromo-2-(3-cyanophenyl)-N-(2-hydroxy-2-methyl-propyl)imidazo[1,2-b]pyridazine-6-carboxamide]",10.9 nM,4000 nM,500 nM,> 1000 nM,–,–
"Cc1cc(-c2c(-c3cccc(C#N)c3)nc3ccc(C(=O)NCC(C)(C)O)nn23)cc(C)n1 [Example 2.1, 2-(3-Cyanophenyl)-3-(2,6-dimethyl-4-pyridyl)-N-(2-hydroxy-2-methyl-propyl)imidazo[1,2-b]pyridazine-6-carboxamide]",0.79 nM,667 nM,212 nM,> 1000 nM,122 nM,13.8 nM
"Cc1cc(-c2c(-c3cccc(C#N)c3)nc3ccc(C(=O)NCC(C)(C)O)nn23)cc(Cl)n1 [Example 2.2, 3-(2-Chloro-6-methyl-4-pyridyl)-2-(3-cyanophenyl)-N-(2-hydroxy-2-methyl-propyl)imidazo[1,2-b]pyridazine-6-carboxamide]",0.5 nM,363 nM,27 nM,> 1000 nM,496 nM,39 nM
"Cc1cc(-c2c(-c3cccc(C#N)c3)nc3ccc(C(=O)NCC(C)(C)O)nn23)cc(C(F)(F)F)n1 [Example 2.3, 2-(3-Cyanophenyl)-N-(2-hydroxy-2-methyl-propyl)-3-[2-methyl-6-(trifluoromethyl)-4-pyridyl]imidazo[1,2-b]pyridazine-6-carboxamide]",0.46 nM,95 nM,18 nM,> 1000 nM,282 nM,7.3 nM
"COc1cc(-c2c(-c3cccc(C#N)c3)nc3ccc(C(=O)NCC(C)(C)O)nn23)cc(C)n1 [Example 2.4, 2-(3-Cyanophenyl)-N-(2-hydroxy-2-methyl-propyl)-3-(2-methoxy-6-methyl-4-pyridyl)imidazo[1,2-b]pyridazine-6-carboxamide]",2.3 nM,286 nM,156 nM,> 1000 nM,2040 nM,13.5 nM
"Cc1cc(-c2c(-c3cccc(C#N)c3)nc3ccc(C(=O)N[C@@H](C)C(C)(C)O)nn23)cc(C(F)(F)F)n1 [Example 2.6, 2-(3-Cyanophenyl)-N-[(1S)-2-hydroxy-1,2-dimethyl-propyl]-3-[2-methyl-6-(trifluoromethyl)-4-pyridyl]imidazo[1,2-b]pyridazine-6-carboxamide]",0.17 nM,30 nM,18 nM,> 1000 nM,58 nM,0.6 nM
"Cc1cc(-c2c(-c3cccc(C#N)c3)nc3ccc(C(=O)N[C@@H](C)C(C)(C)O)nn23)cc(C)n1 [Example 3, 2-(3-Cyanophenyl)-3-(2,6-dimethyl-4-pyridyl)-N-[(1S)-2-hydroxy-1,2-dimethyl-propyl]imidazo[1,2-b]pyridazine-6-carboxamide]",0.16 nM,71 nM,31 nM,> 1000 nM,61 nM,1.7 nM
